Assay [1] has as its system MM MOS. Put plainly: Caspase 3/7 green dye apoptosis monitoring of drug-treated MM MOS (INCUCYTE imaging). It is filed as cell-based, human. The conditions noted are these: for MM MOS death (Caspase 3/7 signal): day 11 MM MOS, 5 μM lenalidomide or 2 nM bortezomib for 92 hours, vs negative control. As for the experimental part:
Studies were conducted to determine the effects of various MM drugs on the MM MOS. For example, day 11 MM MOS were treated with 5 μM lenalidomide or 2 nM bortezomib for 92 hours, with no medium change during the drug treatment. Caspase 3/7 green dye was included in the medium to monitor apoptosis, and fluorescence was measured.

Assay [2] concerns MM MOS. Kind of assay: Live/dead dye (calcein AM / ethidium homodimer) imaging of drug-treated MM MOS. It is filed as cell-based, human. As to conditions: for MM MOS response to treatment: 10 μM for 4 days, live/dead dye images, n=3, p<0.05 by t-test; for live/dead ratio: 10 μM, 4 days of treatment beginning on day 9 of MOS generation, compared to negative control. As for the experimental part: Further studies were conducted using 10 μM carfilzomib or 10 μM selinexor treatment beginning on day 9 of MOS generation from MM patient bone marrow biopsy samples. After 4 days of treatment, live/dead dyes (calcein AM-green and ethidium homodimer-red) were added to the wells for a 30-minute incubation.

Each structure is given as a SMILES string.

For `CC(C)C[C@H](NC(=O)[C@H](Cc1ccccc1)NC(=O)c1cnccn1)B(O)O` [bortezomib], the “MM MOS death (Caspase 3/7 signal)” value in the assay on MM MOS [1] is “not”.
Consider `CC(C)C[C@H](NC(=O)[C@H](CCc1ccccc1)NC(=O)CN1CCOCC1)C(=O)N[C@@H](Cc1ccccc1)C(=O)N[C@@H](CC(C)C)C(=O)[C@@]1(C)CO1` [carfilzomib], for which, in the assay with MM MOS [2], the “MM MOS response to treatment” value was “responded” and the live/dead ratio result is on record as “significantly reduced”.
On to `Nc1cccc2c1CN(C1CCC(=O)NC1=O)C2=O` (stereo not shown) [lenalidomide], for which, in the assay on MM MOS [1] (5 μM lenalidomide, INCUCYTE images taken every 2 hours), the “time at which MM MOS responded after onset of treatment” value amounted to 24 h. Also, the “MM MOS death (Caspase 3/7 signal)” value in the assay with MM MOS [1] is reported as “increased”.
With `O=C(/C=C\n1cnc(-c2cc(C(F)(F)F)cc(C(F)(F)F)c2)n1)NNc1cnccn1` [selinexor], in the assay with MM MOS [2], the “MM MOS response to treatment” value was “responded” and the live/dead ratio result is recorded as “significantly reduced”.

These data come from patent US20260078348A1, “MULTIPLE MYELOMA MICROORGANOSPHERES” (Xilis, Inc., priority 2022, published 2026).
